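Cultured in 96-well plates, cells were exposed to test compound for 48 hours across five concentrations. GI50 is the concentration that inhibits growth by half.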 Active and inactive are the calls of the source. No stated cut-off is given here; in the data, active = GI50 up to about 1.1 µM and inactive = higher.
What was measured:
Assay in all cases: NCI tumour cell line growth inhibition, 48 h
786-0 = tested on: 786-0
A498 = tested on: A498
A549 = tested on: A549
ACHN = tested on: ACHN
BT-549 = tested on: BT-549
CAKI-1 = tested on: CAKI-1
CCRF-CEM = tested on: CCRF-CEM
COLO 205 = tested on: COLO 205
DU-145 = tested on: DU-145
EKVX = tested on: EKVX
HCC 2998 = tested on: HCC 2998
HCT-116 = tested on: HCT-116
HCT-15 = tested on: HCT-15
HL-60 = tested on: HL-60
HOP-62 = tested on: HOP-62
Hs-578T = tested on: Hs-578T
IGROV-1 = tested on: IGROV-1
K562 = tested on: K562
KM12 = tested on: KM12
LOX IMVI = tested on: LOX IMVI
M14 = tested on: M14
MCF7 = tested on: MCF7
MDA-MB-231 = tested on: MDA-MB-231
MDA-MB-435 = tested on: MDA-MB-435
MDA-N = tested on: MDA-N
MOLT-4 = tested on: MOLT-4
Malme-3M = tested on: Malme-3M
NCI-H226 = tested on: NCI-H226
NCI-H23 = tested on: NCI-H23
NCI-H460 = tested on: NCI-H460
NCI-H522 = tested on: NCI-H522
NCI/ADR-RES = tested on: NCI/ADR-RES
OVCAR-3 = tested on: OVCAR-3
OVCAR-4 = tested on: OVCAR-4
OVCAR-5 = tested on: OVCAR-5
OVCAR-8 = tested on: OVCAR-8
PC-3 = tested on: PC-3
RPMI-8226 = tested on: RPMI-8226
RXF 393 = tested on: RXF 393
SF-268 = tested on: SF-268
SF-295 = tested on: SF-295
SF-539 = tested on: SF-539
SK-MEL-28 = tested on: SK-MEL-28
SK-MEL-2 = tested on: SK-MEL-2
SK-MEL-5 = tested on: SK-MEL-5
SK-OV-3 = tested on: SK-OV-3
SN12C = tested on: SN12C
SNB-19 = tested on: SNB-19
SNB-75 = tested on: SNB-75
SR = tested on: SR
SW-620 = tested on: SW-620
T47D = tested on: T47D
TK-10 = tested on: TK-10
U-251 = tested on: U-251
UACC-257 = tested on: UACC-257
UACC-62 = tested on: UACC-62
UO-31 = tested on: UO-31
HT-29 = tested on: HT-29
HOP-92 = tested on: HOP-92

CCN1C(=O)C(C)S/C1=N\NC(=O)CSc1nc2ccccc2c(=O)n1CC (stereo not drawn)
GI50 (786-0): > 100 µM (inactive)
GI50 (A498): > 100 µM (inactive)
GI50 (A549): > 100 µM (inactive)
GI50 (ACHN): > 100 µM (inactive)
GI50 (BT-549): > 100 µM (inactive)
GI50 (CAKI-1): > 100 µM (inactive)
GI50 (CCRF-CEM): > 100 µM (inactive)
GI50 (COLO 205): > 100 µM (inactive)
GI50 (DU-145): > 100 µM (inactive)
GI50 (EKVX): > 100 µM (inactive)
GI50 (HCC 2998): > 100 µM (inactive)
GI50 (HCT-116): > 100 µM (inactive)
GI50 (HCT-15): > 100 µM
GI50 (HL-60): > 100 µM (inactive)
GI50 (HOP-62): > 100 µM (inactive)
GI50 (Hs-578T): > 100 µM (inactive)
GI50 (IGROV-1): > 100 µM (inactive)
GI50 (K562): 98.6 µM (inactive)
GI50 (KM12): > 100 µM (inactive)
GI50 (LOX IMVI): > 100 µM (inactive)
GI50 (M14): > 100 µM (inactive)
GI50 (MCF7): > 100 µM (inactive)
GI50 (MDA-MB-231): > 100 µM (inactive)
GI50 (MDA-MB-435): > 100 µM (inactive)
GI50 (MDA-N): > 100 µM (inactive)
GI50 (MOLT-4): > 100 µM (inactive)
GI50 (Malme-3M): > 100 µM (inactive)
GI50 (NCI-H226): > 100 µM (inactive)
GI50 (NCI-H23): > 100 µM (inactive)
GI50 (NCI-H460): 3.12 µM (inactive)
GI50 (NCI-H522): > 100 µM (inactive)
GI50 (NCI/ADR-RES): > 100 µM (inactive)
GI50 (OVCAR-3): > 100 µM (inactive)
GI50 (OVCAR-4): 92 µM (inactive)
GI50 (OVCAR-5): > 100 µM (inactive)
GI50 (OVCAR-8): > 100 µM (inactive)
GI50 (PC-3): > 100 µM (inactive)
GI50 (RPMI-8226): > 100 µM (inactive)
GI50 (RXF 393): > 100 µM (inactive)
GI50 (SF-268): 90.6 µM (inactive)
GI50 (SF-295): > 100 µM (inactive)
GI50 (SF-539): > 100 µM (inactive)
GI50 (SK-MEL-28): > 100 µM (inactive)
GI50 (SK-MEL-2): > 100 µM (inactive)
GI50 (SK-MEL-5): > 100 µM (inactive)
GI50 (SK-OV-3): > 100 µM (inactive)
GI50 (SN12C): > 100 µM (inactive)
GI50 (SNB-19): > 100 µM (inactive)
GI50 (SNB-75): > 100 µM (inactive)
GI50 (SR): > 100 µM (inactive)
GI50 (SW-620): > 100 µM (inactive)
GI50 (T47D): > 100 µM (inactive)
GI50 (TK-10): > 100 µM (inactive)
GI50 (U-251): > 100 µM (inactive)
GI50 (UACC-257): > 100 µM (inactive)
GI50 (UACC-62): > 100 µM (inactive)
GI50 (UO-31): 72.9 µM (inactive)

Cc1ccc(S(=O)(=O)N2CCCC2C(=O)O[C@H]2CC[C@H]3CC=C[C@H]32)cc1 (stereo partly drawn)
GI50 (786-0): 18.9 µM (inactive)
GI50 (A498): 23.8 µM (inactive)
GI50 (A549): 19.4 µM (inactive)
GI50 (ACHN): 18.7 µM (inactive)
GI50 (BT-549): 47.4 µM (inactive)
GI50 (CAKI-1): > 100 µM (inactive)
GI50 (CCRF-CEM): 13.8 µM (inactive)
GI50 (COLO 205): > 10 µM (inactive)
GI50 (DU-145): > 10 µM (inactive)
GI50 (EKVX): 65.6 µM (inactive)
GI50 (HCC 2998): 67.6 µM (inactive)
GI50 (HCT-116): 19.1 µM (inactive)
GI50 (HCT-15): > 10 µM
GI50 (HL-60): > 10 µM (inactive)
GI50 (HOP-62): 45.4 µM (inactive)
GI50 (HT-29): 40.3 µM (inactive)
GI50 (Hs-578T): 41.4 µM (inactive)
GI50 (IGROV-1): 41.3 µM (inactive)
GI50 (K562): 14.9 µM (inactive)
GI50 (KM12): > 100 µM (inactive)
GI50 (LOX IMVI): 20.7 µM (inactive)
GI50 (M14): 38.7 µM (inactive)
GI50 (MCF7): 26.4 µM (inactive)
GI50 (MDA-MB-231): 63.4 µM (inactive)
GI50 (MDA-MB-435): 80.2 µM (inactive)
GI50 (MDA-N): > 69.8 µM (inactive)
GI50 (MOLT-4): 7.89 µM (inactive)
GI50 (Malme-3M): 47.1 µM (inactive)
GI50 (NCI-H226): 24.7 µM (inactive)
GI50 (NCI-H23): 35.6 µM (inactive)
GI50 (NCI-H460): 27 µM (inactive)
GI50 (NCI-H522): > 10 µM (inactive)
GI50 (NCI/ADR-RES): 24.5 µM (inactive)
GI50 (OVCAR-3): > 100 µM (inactive)
GI50 (OVCAR-4): > 55.8 µM (inactive)
GI50 (OVCAR-5): > 100 µM (inactive)
GI50 (OVCAR-8): 31.8 µM (inactive)
GI50 (PC-3): 25 µM (inactive)
GI50 (RPMI-8226): 17.1 µM (inactive)
GI50 (SF-268): > 100 µM (inactive)
GI50 (SF-295): 23.7 µM (inactive)
GI50 (SF-539): > 10 µM (inactive)
GI50 (SK-MEL-28): 29.9 µM (inactive)
GI50 (SK-MEL-2): > 10 µM (inactive)
GI50 (SK-MEL-5): 19.1 µM (inactive)
GI50 (SK-OV-3): 33.7 µM (inactive)
GI50 (SN12C): 27.8 µM (inactive)
GI50 (SNB-19): 76.9 µM (inactive)
GI50 (SNB-75): > 74.6 µM (inactive)
GI50 (SR): 24.9 µM (inactive)
GI50 (SW-620): 31.1 µM (inactive)
GI50 (T47D): 38.3 µM (inactive)
GI50 (TK-10): > 10 µM (inactive)
GI50 (U-251): 45.4 µM (inactive)
GI50 (UACC-257): 23.8 µM (inactive)
GI50 (UACC-62): 97.3 µM (inactive)
GI50 (UO-31): 29.9 µM (inactive)

O=C1CCCC/C1=C\c1ccc([N+](=O)[O-])cc1
GI50 (786-0): 14.9 µM (inactive)
GI50 (A549): 25.5 µM (inactive)
GI50 (ACHN): 24 µM (inactive)
GI50 (BT-549): 23.3 µM (inactive)
GI50 (CAKI-1): 18.5 µM (inactive)
GI50 (CCRF-CEM): 2.91 µM (inactive)
GI50 (COLO 205): 18.4 µM (inactive)
GI50 (DU-145): 39.1 µM (inactive)
GI50 (EKVX): 39.6 µM (inactive)
GI50 (HCC 2998): 12.3 µM (inactive)
GI50 (HCT-116): 12.4 µM (inactive)
GI50 (HL-60): 42.5 µM (inactive)
GI50 (HOP-62): 11.5 µM (inactive)
GI50 (HOP-92): 19.6 µM (inactive)
GI50 (HT-29): 37.3 µM (inactive)
GI50 (Hs-578T): 28.3 µM (inactive)
GI50 (IGROV-1): 17.1 µM (inactive)
GI50 (K562): 2.82 µM (inactive)
GI50 (KM12): 18.3 µM (inactive)
GI50 (LOX IMVI): 1.79 µM (inactive)
GI50 (M14): 18.4 µM (inactive)
GI50 (MCF7): 18.5 µM (inactive)
GI50 (MDA-MB-231): 21.8 µM (inactive)
GI50 (MDA-MB-435): > 10 µM (inactive)
GI50 (MDA-N): 17.8 µM (inactive)
GI50 (MOLT-4): 5.48 µM (inactive)
GI50 (NCI-H23): 24 µM (inactive)
GI50 (NCI-H460): 35.4 µM (inactive)
GI50 (NCI-H522): 11 µM (inactive)
GI50 (NCI/ADR-RES): 19.5 µM (inactive)
GI50 (OVCAR-3): 27.5 µM (inactive)
GI50 (OVCAR-4): 22.5 µM (inactive)
GI50 (OVCAR-5): 54.2 µM (inactive)
GI50 (OVCAR-8): 19.4 µM (inactive)
GI50 (PC-3): 2.03 µM (inactive)
GI50 (RPMI-8226): 7.57 µM (inactive)
GI50 (SF-268): 34.6 µM (inactive)
GI50 (SF-295): 18.2 µM (inactive)
GI50 (SF-539): 20.4 µM (inactive)
GI50 (SK-MEL-28): 11.4 µM (inactive)
GI50 (SK-MEL-2): 21.5 µM (inactive)
GI50 (SK-MEL-5): 27.2 µM (inactive)
GI50 (SK-OV-3): 17.2 µM (inactive)
GI50 (SN12C): 13.5 µM (inactive)
GI50 (SNB-19): 17.1 µM (inactive)
GI50 (SNB-75): 18.3 µM (inactive)
GI50 (SR): 20.2 µM (inactive)
GI50 (SW-620): 1.96 µM (inactive)
GI50 (T47D): 23.6 µM (inactive)
GI50 (TK-10): 8.67 µM (inactive)
GI50 (U-251): 16.1 µM (inactive)
GI50 (UACC-257): 15.5 µM (inactive)
GI50 (UACC-62): 16.7 µM (inactive)
GI50 (UO-31): 19.3 µM (inactive)

From ChEMBL document CHEMBL1201862, “PubChem BioAssay data set” (2004)
